Experimental data as given in the supplement of paper PMC10307832.

Key:
Assay in all cases: relative viability (nuclei count vs DMSO), 5 days (fraction); higher = more cells survive
BAY61-3606 + Linsitinib = compound: COC1=C(C=C(C=C1)C2=CC3=NC=CN3C(=N2)NC4=C(C=CC=N4)C(=O)N)OC [BAY61-3606] + C[C@]1(O)C[C@@H](c2nc(-c3ccc4ccc(-c5ccccc5)nc4c3)c3c(N)nccn32)C1 [Linsitinib] (partner 1 µM)
How it was run: (§1)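 After 5 days of treatment, lung cancer cells in 1536-well plates were fixed and stained in a single step (final 0.05% Triton X-100, 1% formaldehyde, 1 ug/ml Hoechst) and their nuclei counted on 4× images. Treatment had been applied by pin tool the day after seeding as one drug alone or as a fixed anchor-drug dose with five library-drug doses (not always all listed) in √10 steps. Relative viability is the nuclei count of treated wells divided by that of vehicle wells, and values are medians of duplicate plates.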

BAY61-3606 + Bortezomib = compound: COC1=C(C=C(C=C1)C2=CC3=NC=CN3C(=N2)NC4=C(C=CC=N4)C(=O)N)OC [BAY61-3606] + CC(C)C[C@H](NC(=O)[C@H](Cc1ccccc1)NC(=O)c1cnccn1)B(O)O [Bortezomib] (partner 0.002 µM)
How it was run: as §1

BAY61-3606 + Navitoclax = compound: COC1=C(C=C(C=C1)C2=CC3=NC=CN3C(=N2)NC4=C(C=CC=N4)C(=O)N)OC [BAY61-3606] + CC1(C)CCC(c2ccc(Cl)cc2)=C(CN2CCN(c3ccc(C(=O)NS(=O)(=O)c4ccc(N[C@H](CCN5CCOCC5)CSc5ccccc5)c(S(=O)(=O)C(F)(F)F)c4)cc3)CC2)C1 [Navitoclax] (partner 0.5 µM)
How it was run: as §1

Doxorubicin + Alpelisib = compound: COc1cccc2c1C(=O)c1c(O)c3c(c(O)c1C2=O)C[C@@](O)(C(=O)CO)C[C@@H]3O[C@H]1C[C@H](N)[C@H](O)[C@H](C)O1 [Doxorubicin] + Cc1nc(NC(=O)N2CCC[C@H]2C(N)=O)sc1-c1ccnc(C(C)(C)C(F)(F)F)c1 [Alpelisib] (partner 2 µM)
How it was run: as §1

## UMC-11
BAY61-3606 + Linsitinib; first compound 0.02 µM
  relative viability: 1.08
BAY61-3606 + Linsitinib; first compound 0.06325 µM
  relative viability: 1.11
BAY61-3606 + Linsitinib; first compound 0.2 µM
  relative viability: 0.995
BAY61-3606 + Linsitinib; first compound 0.6325 µM
  relative viability: 1.08
BAY61-3606 + Linsitinib; first compound 2 µM
  relative viability: 1
BAY61-3606 + Bortezomib; first compound 0.02 µM
  relative viability: 0.947
BAY61-3606 + Bortezomib; first compound 0.06325 µM
  relative viability: 0.616
BAY61-3606 + Bortezomib; first compound 0.2 µM
  relative viability: 0.643
BAY61-3606 + Bortezomib; first compound 0.6325 µM
  relative viability: 0.849
BAY61-3606 + Bortezomib; first compound 2 µM
  relative viability: 0.734
BAY61-3606 + Navitoclax; first compound 0.02 µM
  relative viability: 0.339
BAY61-3606 + Navitoclax; first compound 0.06325 µM
  relative viability: 0.324
BAY61-3606 + Navitoclax; first compound 0.2 µM
  relative viability: 0.309
BAY61-3606 + Navitoclax; first compound 0.6325 µM
  relative viability: 0.344
BAY61-3606 + Navitoclax; first compound 2 µM
  relative viability: 0.164
Doxorubicin + Alpelisib; first compound 0.001 µM
  relative viability: 1.11
Doxorubicin + Alpelisib; first compound 0.003162 µM
  relative viability: 1.17
Doxorubicin + Alpelisib; first compound 0.01 µM
  relative viability: 0.958
Doxorubicin + Alpelisib; first compound 0.03162 µM
  relative viability: 0.693
Doxorubicin + Alpelisib; first compound 0.1 µM
  relative viability: 0.968
